Laboratory results reported in patent US20220079139A1, “CYCLOSPORIN ANALOG AND USE THEREOF” (Farsight Medical Technology (Shanghai) Co., Ltd., priority 2019, published 2022).

What was measured:
[1] = biological target: Cyclophilin D (Homo sapiens, UniProt P30405); assay: Cyclophilin inhibition binding, competitive ELISA (Cyclophilin D); conditions: human recombinant cyclophilin, read-out: CypD EC50
Procedure: (§1) The cyclophilin inhibition binding activity of compounds disclosed herein was determined using a competitive ELISA adapted from the methods described by Quesniaux et al. (Eur. J Immunol., 1987, 17:1359-1365). Activated ester of succinyl spacers bound to D-Lys^8-cylosporine A (D-Lys^8-Cs) are coupled to bovine serum albumin (BSA) through D-lysyl residue in position 8. BSA is dissolved in 0.1 M borate buffer, pH 9.0 (4 mg in 1.4 ml). A hundredfold molar excess of D-Lys^8-Cs dissolved in dimethyl formamide (0.6 ml) is added dropwise to the BSA under vigorous stirring. The coupling reaction is performed for 2 to 3 hours at room temperature under mild stirring and the conjugate obtained is extensively dialyzed against phosphate-buffered saline (PBS, pH 7.4).
(§2) Microtiter Plates are coated with D-Lys^8-Cs-BSA conjugate (2 μg/ml in PBS for 24 hours at 4° C.). Titration Plates are washed with Tween®/PBS and with PBS alone. To block nonspecific binding, 2% BSA/PBS (pH 7.4) is added to the wells and allowed to incubate for 2 hours at 37° C. A five-fold dilution series of the compound to be tested is made in ethanol in a separate microtiter plate. The starting concentration is 0.1 mg/mL for assays with human recombinant cyclophilin. 198 μL of 0.1 μg/mL cyclophilin solution is added to the microtiter plate immediately followed by 2 μL of diluted cyclosporine A (used as a reference compound) or the compound of the invention. The reaction between coated BSA-Cs conjugate, free cyclosporine A and cyclophilin is allowed to equilibrate overnight at 4° C. Cyclophilin is detected with anti-cyclophilin rabbit serum diluted in PBS containing 1% BSA and incubates overnight at 4° C. Titration Plates are washed as described above. Bound rabbit antibodies are then detected by goat anti-rabbit IgG conjugated to alkaline phosphatase and diluted in 1% BSA-PBS and allowed to incubate for 2 hours at 37° C. Titration Plates are washed as described above. […] The results are expressed as an EC50, which is the concentration of the compound of the invention required to achieve 50% inhibition.

[2] = biological target: Cyclophilin A (Homo sapiens, UniProt P62937); assay: Cyclophilin inhibition binding, competitive ELISA (Cyclophilin A); conditions: human recombinant cyclophilin, read-out: CypA EC50
Chain of Cyclophilin A (P62937 whole entry): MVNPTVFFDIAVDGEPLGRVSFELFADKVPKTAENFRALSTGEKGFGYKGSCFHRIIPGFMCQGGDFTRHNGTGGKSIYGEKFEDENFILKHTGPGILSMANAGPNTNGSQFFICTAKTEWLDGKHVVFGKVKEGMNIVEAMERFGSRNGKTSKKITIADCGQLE
Procedure: as §1, §2

Chain of Cyclophilin D (P30405 30-207): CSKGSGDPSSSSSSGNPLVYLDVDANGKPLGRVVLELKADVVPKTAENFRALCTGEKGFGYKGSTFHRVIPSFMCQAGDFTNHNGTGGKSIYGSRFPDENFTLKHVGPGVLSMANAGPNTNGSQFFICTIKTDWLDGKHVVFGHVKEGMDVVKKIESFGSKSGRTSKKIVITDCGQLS

| Compound | EC50 [1] [nM] | EC50 [2] [nM] |
| --- | --- | --- |
| C/C=C/C[C@@H](C)[C@@H](O)[C@H]1C(=O)N[C@@H](CC)C(=O)N(C)[C@H](OCCN2CCCC2)C(=O)N(C)[C@@H](CC(C)C)C(=O)N[C@@H](C(C)C)C(=O)N(C)[C@@H](CC(C)C)C(=O)N[C@@H](C)C(=O)N[C@H](C)C(=O)N(C)[C@@H](CC(C)C)C(=O)N(C)[C@@H](CC(C)C)C(=O)N(C)[C@@H](C(C)C)C(=O)N1C [Entry 7] | 1200 | 12 |
| C/C=C/C[C@@H](C)[C@@H](O)[C@H]1C(=O)N[C@@H](CC)C(=O)N(C)[C@H](OCCN2CCCCC2)C(=O)N(C)[C@@H](CC(C)C)C(=O)N[C@@H](C(C)C)C(=O)N(C)[C@@H](CC(C)C)C(=O)N[C@@H](C)C(=O)N[C@H](C)C(=O)N(C)[C@@H](CC(C)C)C(=O)N(C)[C@@H](CC(C)C)C(=O)N(C)[C@@H](C(C)C)C(=O)N1C [Entry 6] | 2500 | 118 |

Results, then the compound that gave them:

| EC50 [1] [nM] | EC50 [2] [nM] | Compound |
| --- | --- | --- |
| 3550 | 202 | C/C=C/C[C@@H](C)[C@@H](O)[C@H]1C(=O)N[C@@H](CC)C(=O)N(C)[C@H](OCCN(C)C(C)C)C(=O)N(C)[C@@H](CC(C)C)C(=O)N[C@@H](C(C)C)C(=O)N(C)[C@@H](CC(C)C)C(=O)N[C@@H](C)C(=O)N[C@H](C)C(=O)N(C)[C@@H](CC(C)C)C(=O)N(C)[C@@H](CC(C)C)C(=O)N(C)[C@@H](C(C)C)C(=O)N1C [Entry 2] |
| – | 14 | C/C=C/C[C@@H](C)[C@@H](O)[C@H]1C(=O)N[C@@H](CC)C(=O)N(C)[C@H](OCCCN)C(=O)N(C)[C@@H](CC(C)C)C(=O)N[C@@H](C(C)C)C(=O)N(C)[C@@H](CC(C)C)C(=O)N[C@@H](C)C(=O)N[C@H](C)C(=O)N(C)[C@@H](CC(C)C)C(=O)N(C)[C@@H](CC(C)C)C(=O)N(C)[C@@H](C(C)C)C(=O)N1C [Entry 3] |
| – | 66 | C/C=C/C[C@@H](C)[C@@H](O)[C@H]1C(=O)N[C@@H](CC)C(=O)N(C)[C@H](OCCN2CCC2)C(=O)N(C)[C@@H](CC(C)C)C(=O)N[C@@H](C(C)C)C(=O)N(C)[C@@H](CC(C)C)C(=O)N[C@@H](C)C(=O)N[C@H](C)C(=O)N(C)[C@@H](CC(C)C)C(=O)N(C)[C@@H](CC(C)C)C(=O)N(C)[C@@H](C(C)C)C(=O)N1C [Entry 5] |
